How the values were obtained:
[1] = test system: Myzus persicae (Green Peach Aphid); experiment: Myzus persicae (Green Peach Aphid) feeding/residual contact activity, preventive; sprayed sunflower leaf discs; assay type: in vivo; conditions: Pirimicarb alone
Source text: (§1) A synergistic effect exists whenever the action of an active ingredient combination is greater than the sum of the actions of the individual components.
(§2) The action to be expected E for a given active ingredient combination obeys the so-called COLBY formula and can be calculated as follows (COLBY, S. R. “Calculating synergistic and antagonistic responses of herbicide combination”. Weeds, Vol. 15, pages 20-22; 1967): […]
(§3) ppm=milligrams of active ingredient (=a.i.) per liter of spray mixture
(§4) X=% action by active ingredient A) using p ppm of active ingredient
(§5) Y=% action by active ingredient B) using q ppm of active ingredient.
(§6) According to COLBY, the expected (additive) action of active ingredients A)+B) using p+q ppm of active ingredient is If the action actually observed (O) is greater than the expected action (E), then the action of the combination is super-additive, i.e. there is a synergistic effect. In mathematical terms the synergism factor SF corresponds to O/E. In the agricultural practice an SF of ≧1.2 indicates significant improvement over the purely complementary addition of activities (expected activity), while an SF of ≦0.9 in the practical application routine signals a loss of activity compared to the expected activity.
Myzus persicae (Green Peach Aphid): feeding/residual contact activity, preventive
Sunflower leaf discs were placed on agar in a 24-well microtiter plate and sprayed with the DMSO test solutions of Mixtures (as provided by Table 45). After drying, the leaf discs were infested with an aphid population of mixed ages. After an incubation period of 6 DAT (days after treatment), samples were checked for mortality.

[2] = test system: Tetranychus urticae (Two-Spotted Spider Mite); experiment: Tetranychus urticae (Two-Spotted Spider Mite) feeding/contact activity, preventive; sprayed bean leaf discs; assay type: in vivo; conditions: Pirimicarb alone
Source text: as §1, §2, §3, §4, §5, §6
Tetranychus urticae (Two-Spotted Spider Mite): feeding/contact activity, preventive
Bean leaf discs on agar in 24-well microtiter plates were sprayed with the DMSO test solutions of certain Mixtures (as provided by Table 45). After drying, the leaf discs were infested with mite populations of mixed ages. 8 days later, discs were checked for mortality against mobile stages.

**Q.** What does the source list for Cc1nc(N(C)C)nc(OC(=O)N(C)C)c1C [Pirimicarb]?
**A.** AVERAGE DEAD IN % AFTER 6 DAYS, Pirimicarb ([1]; 12.5 PPM AI, 6 DAT): 0%; AVERAGE DEAD IN % AFTER 6 DAYS, Pirimicarb ([1]; 25 PPM AI, 6 DAT): 17.5%; AVERAGE DEAD IN % AFTER 6 DAYS, Pirimicarb ([1]; 25 PPM AI, 6 DAT (Table 47)): 17.5%; AVERAGE DEAD IN % AFTER 6 DAYS, Pirimicarb ([1]; 50 PPM AI, 6 DAT): 65%; AVERAGE DEAD IN % AFTER 6 DAYS, Pirimicarb ([1]; 100 PPM AI, 6 DAT): 87.5%; AVERAGE DEAD IN % AFTER 6 DAYS, Pirimicarb ([1]; 200 PPM AI, 6 DAT): 100%; AVERAGE DEAD IN % AFTER 8 DAYS, Pirimicarb ([2]; 25 PPM AI, mobile stages): 0%; AVERAGE DEAD IN % AFTER 8 DAYS, Pirimicarb ([2]; 50 PPM AI, mobile stages): 0%; AVERAGE DEAD IN % AFTER 8 DAYS, Pirimicarb ([2]; 100 PPM AI, mobile stages): 0%; AVERAGE DEAD IN % AFTER 8 DAYS, Pirimicarb ([2]; 200 PPM AI, mobile stages (Table 48)): 0%; AVERAGE DEAD IN % AFTER 8 DAYS, Pirimicarb ([2]; 200 PPM AI, mobile stages (Table 49)): 0%; AVERAGE DEAD IN % AFTER 8 DAYS, Pirimicarb ([2]; 400 PPM AI, mobile stages): 0%

Source: US9603367B2, “Pesticidal mixtures including spiroheterocyclic pyrrolidine diones” (priority 2012, dated 2017)
